Experimental data published in patent publication EP1267623B1, “ACYCLIC MONOTERPENES AS ANTI-SPROUTING AGENTS FOR POTATO TUBERS” (COUNCIL OF SCIENTIFIC & INDUSTRIAL RESEARCH; An Indian …, priority 2000, dated 2001).

Assays:
Type in all cases: in vivo
potato tubers [1] = experiment: Sprout inhibition after dipping tubers in 8 mM emulsions of purified compounds (Example 3); conditions: for % eyes sprouted: 8 mM emulsion with Tween 20, dipping 5 hours, then 10 days in jars at ambient temperature; for dormancy of tubers under repeated treatment: emulsion, dipped 5 hours, kept 10 days, then dipped again, after two months
Description: Therefore essential oils were purified by column chromatography and substantially pure compounds were used.
Emulsion of the compounds were prepared of 8 mM concentration of each compound in distilled water containing 2x10-6 % Tween 20 as emulsifier ( control tubers were treated with Tween 20 only). Tubers were treated by dipping each tuber in emulsion for 5 hours, where upon excess liquid was allowed to drain off. Six tubers per treatment were used, with two replicates, and all experiments were repeated once. Tubers were then kept in jars for 10 days at ambient temperature. Tubers were then evaluated as in example 1 & 2 for percentage of sprouted eyes, tuber texture and fungal growth.
Geranyl acetate inhibited sprouting by 42%. […] A&M plants 3 (3) no. 1452 pp 183].
Geraniol, citral, citranellol, citranellal and menthyl acetate were as effective as reported monoterpenes such as benzaldehyde, cinnamaldehyde, eugenol and thymol (U.S.patent no. 5,129,951).

potato tubers [2] = experiment: Sprout inhibition by dipping in combinations of monoterpenes and other compounds (Example 5); conditions: dipping five hours in aqueous solution with Tween 20, 4-8 mM
Description: Combination of 4-8 mM of each geraniol, citral , citronella and citronellal were tried to determine the best combination. Along with this some other compounds were also tried. The terpenes were applied by dipping the tubers for five hours in aqueous solution of the monoterpenes containing Tween 20 as emulsifying agent. […] Other chemicals were not very effective. Results are given in table 5.Menthol, anisaldehyde, thymol, cinnamom bark oil and thymol has been used earlier (U.S. Patent No. 5,129,951 ) and were effective.

potato tubers [3] = experiment: Sprout inhibition by exposure to vapours of volatilized compounds for seven days (Example 6); conditions: for % eyes sprouted: exposed to vapours (1 ml on filter paper, saturated atmosphere) for seven days, 14 days after removal; for sprouting 18 days after removal from treatment flask: exposed to vapours for seven days
Text: Tubers treated with emulsions of different aromatic compounds remained dormant. Therefore, it was tried to find out the response when tubers were exposed to vapours of volatilized compounds for sprout inhibition. Substantially pure compounds were used as in other examples. Six potatoes were placed in air tight jars containing 9 cm piece of filter paper saturated with one ml of the liquid compound. These amounts were sufficient to produce a saturated atmosphere in the flask. The filter paper was placed in the cap of the flask so that no direct physical contact with the tuber occurred. The tubers were removed after seven days and placed in flasks containing fresh air at ambient temperature. Control tubers were placed in sealed flask lacking any added compound. […] Such short term treatment would greatly lessen costs to the potato industry.

potato tubers [4] = experiment: Sprout inhibition by exposure to fumes of citral from a vaporizer for 1, 2 or 4 days (Example 7); conditions: 14 days after treatment
Description: The tubers were exposed to fumes of citral with the help of a vaporizer at ambient temperature in a close atmosphere for 24 hour, 48 hour and 96 hours. The tubers were then placed in flask containing fresh air and free of any additional volatilized compound. Control tubers were placed in sealed flasks lacking any added compounds. Fourteen days after treatment all tubers examined for percentage of eyes sprouted, tuber texture and fungal growth. 7

potato tubers [5] = experiment: Sprout inhibition by dipping in geraniol and citral at different concentrations (Example 4); conditions: for % eyes sprouted: dipping 5 hours, then 12 days in jars; for sprouting till 20 days after treatment: experiment continued till 20 days after treatment (6 and 8 mM)
Description: Tubers were treated with geraniol and citral the two promising chemicals at different concentrations. The terpenes were applied at 4mM, 6mM and 8m M for 5 hours by dipping the tubers and then the tubers were kept in jars for 12 days.

[6] = 8 mM emulsion, dipping 5 hours, 10 days

Row | Compound | % eyes sprouted (potato tubers [1]) | effect on tuber sprouting (in words) (potato tubers [1]; [6]) | % eyes sprouted After 3 days (potato tubers [2]) | % eyes sprouted after 7 days (potato tubers [2]) | % eyes sprouted after 14 days (potato tubers [2]) | % eyes sprouted (potato tubers [3]) | sprouting 18 days after removal from treatment flask (potato tubers [3]) | also measured
1 | CC(C)=CCC[C@H](C)CCO [l-citronellol] | 0.0% |  |  |  |  |  |  | 
2 | CC12CCC(CC1=O)C2(C)C (stereo not drawn) [Camphor] | 89% | no significant effect |  |  |  |  |  | 
3 | CC=Cc1ccc(OC)cc1 [Anethol] |  |  | 0.0% | 0.0% | 51% |  |  | 
4 | CC(C)=CCC[C@@H](C)CCO [d-citronellol] | 17% |  |  |  |  | 0.0% | remained unsprouted | 
5 | CC(C)=CCCC(C)=CC=O [Citral] | 19% | completely inhibited sprouting |  |  |  | 0.0% | remained unsprouted | dormancy of tubers under repeated treatment (potato tubers [1]): completely dormant; % eyes sprouted (potato tubers [4]; exposure to fumes for 1 Day (24 hour)): 18.5%; % eyes sprouted (potato tubers [4]; exposure to fumes for 2 Days (48 hour)): 8.3%; % eyes sprouted (potato tubers [4]; exposure to fumes for 4 Days (96 hours)): 0.0%; % eyes sprouted (potato tubers [5]; 4mM): 4.1%; % eyes sprouted (potato tubers [5]; 6mM): 0.0%; % eyes sprouted (potato tubers [5]; 8 mM): 0.0%; sprouting till 20 days after treatment (potato tubers [5]): sprouting was not observed
6 | C=C(C)[C@@H]1CC=C(C)C(=O)C1 [I-carvone] | 100% | no significant effect |  |  |  |  |  | 
7 | CC(C)=CCCC(C)CC=O (stereo not drawn) [citronellal] |  |  |  |  |  | 0.0% | remained unsprouted | 
8 | CC(C)=CCC/C(C)=C/CO [Geraniol] | 16% | completely inhibited sprouting |  |  |  | 0.0% | remained unsprouted | dormancy of tubers under repeated treatment (potato tubers [1]): completely dormant; % eyes sprouted (potato tubers [5]; 4mM): 7.5%; % eyes sprouted (potato tubers [5]; 6mM): 0.0%; % eyes sprouted (potato tubers [5]; 8 mM): 0.0%; sprouting till 20 days after treatment (potato tubers [5]): sprouting was not observed
9 | CC1CCC(C(C)C)C(O)C1 (stereo not drawn) [Menthol] |  |  | 29% | 29% | 29% |  |  | 
10 | C=C(C)[C@H]1CC=C(C)C(=O)C1 [d-carvone] | 93% | no significant effect |  |  |  |  |  | 
11 | CC(=O)OC/C=C(\C)CCC=C(C)C [Geranyl acetate] | 58% |  |  |  |  |  |  | inhibited sprouting by (potato tubers [1]; [6]): 42%
12 | COc1ccc(C=O)cc1 [Anisaldehyde] |  |  | 78% | 96% | 96% |  |  | 
13 | C=CC(C)(O)CCC=C(C)C (stereo not drawn) [Linalool] | 100% | no significant effect |  |  |  |  |  | 
14 | CC(=O)OC1CC(C)CCC1C(C)C (stereo not drawn) [Menthyl acetate] |  |  | 0.0% | 0.0% | 0.0% | 0.0% | remained unsprouted | 
15 | Cc1ccc(C(C)C)c(O)c1 [Thymol] |  |  | 79% | 98% | 98% |  |  | 
